Source: ChEMBL document CHEMBL1201862, “PubChem BioAssay data set” (2004)
Calls of active or inactive are those of the source.

Legend:
[1] = target: T1, RNA-binding protein pos-1 (Caenorhabditis elegans, UniProt G5EF15); assay: disruptors of C. elegans POS-1 RNA interaction – biochemical, fluorescence polarization, dose response (AID 1964);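 further: purified POS-1 fused to maltose binding protein made in E. coli; potency of compounds blocking POS-1 binding to fluorescent RNA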
T1 sequence (G5EF15 whole entry): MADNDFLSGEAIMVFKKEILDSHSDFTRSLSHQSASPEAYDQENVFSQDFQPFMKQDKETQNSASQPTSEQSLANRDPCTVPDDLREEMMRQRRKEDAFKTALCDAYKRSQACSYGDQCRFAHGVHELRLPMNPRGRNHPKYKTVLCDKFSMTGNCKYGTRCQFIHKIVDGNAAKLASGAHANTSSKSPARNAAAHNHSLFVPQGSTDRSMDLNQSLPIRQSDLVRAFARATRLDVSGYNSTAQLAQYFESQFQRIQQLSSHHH

[2] = target: T2, Zinc finger protein mex-5 (Caenorhabditis elegans, UniProt Q9XUB2); assay: potency of MEX-5 RNA-binding blockers – biochemical, C. elegans, fluorescence polarization, dose response (AID 1960)
T2 sequence (Q9XUB2 whole entry): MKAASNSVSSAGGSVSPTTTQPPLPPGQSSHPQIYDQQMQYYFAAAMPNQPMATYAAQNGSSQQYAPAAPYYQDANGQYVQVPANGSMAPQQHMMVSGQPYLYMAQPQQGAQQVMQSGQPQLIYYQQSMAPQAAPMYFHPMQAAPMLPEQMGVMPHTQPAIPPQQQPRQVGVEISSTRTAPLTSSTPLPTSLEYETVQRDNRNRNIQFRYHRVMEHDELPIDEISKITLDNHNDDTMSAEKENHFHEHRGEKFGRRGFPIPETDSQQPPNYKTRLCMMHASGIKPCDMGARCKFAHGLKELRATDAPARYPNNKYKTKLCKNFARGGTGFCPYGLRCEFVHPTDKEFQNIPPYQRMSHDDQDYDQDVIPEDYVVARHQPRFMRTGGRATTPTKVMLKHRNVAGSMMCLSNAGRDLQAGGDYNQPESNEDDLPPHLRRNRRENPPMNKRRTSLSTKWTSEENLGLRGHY

[3] = target: T3, Endoribonuclease toxin MazF (Escherichia coli K-12, UniProt P0AE70); assay: activation of MazEF endoribonuclease cleavage – biochemical, fluorescence, single-stranded RNA substrate, uHTS hits, dose response (AID 588481); assay type: functional
T3 sequence (P0AE70 whole entry): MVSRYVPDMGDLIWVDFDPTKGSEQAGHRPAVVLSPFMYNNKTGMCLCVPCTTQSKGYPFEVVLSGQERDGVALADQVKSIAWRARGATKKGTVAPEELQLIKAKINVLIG

[4] = target: T3, Endoribonuclease toxin MazF; assay: substrate-only fluorescence increase artefacts – biochemical, single-stranded RNase substrate, counter-screen for MazEF activator project, dose response (AID 588502); assay type: functional
[5] = target: T4, Corticotropin-releasing factor receptor 2/Corticotropin-releasing factor-binding protein (Homo sapiens, UniProt P24387+Q13324); assay: Dose Response confirmation of uHTS hits for small molecule antagonists of the CRF-binding protein and CRF-R2 receptor complex.; assay type: functional; conditions: read-out: IC50_Mean
T4 sequence (Q13324 whole entry): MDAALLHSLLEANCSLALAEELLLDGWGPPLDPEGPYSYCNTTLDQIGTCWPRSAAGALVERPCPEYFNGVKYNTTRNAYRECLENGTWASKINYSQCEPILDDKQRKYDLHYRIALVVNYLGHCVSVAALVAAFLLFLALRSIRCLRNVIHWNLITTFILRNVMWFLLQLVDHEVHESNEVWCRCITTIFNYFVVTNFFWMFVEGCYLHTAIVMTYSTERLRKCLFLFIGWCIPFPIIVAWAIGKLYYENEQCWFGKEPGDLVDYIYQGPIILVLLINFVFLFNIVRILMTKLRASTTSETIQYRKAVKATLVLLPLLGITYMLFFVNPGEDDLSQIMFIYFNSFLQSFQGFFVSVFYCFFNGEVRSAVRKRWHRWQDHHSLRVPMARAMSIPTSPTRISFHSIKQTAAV
T4 sequence (P24387 whole entry): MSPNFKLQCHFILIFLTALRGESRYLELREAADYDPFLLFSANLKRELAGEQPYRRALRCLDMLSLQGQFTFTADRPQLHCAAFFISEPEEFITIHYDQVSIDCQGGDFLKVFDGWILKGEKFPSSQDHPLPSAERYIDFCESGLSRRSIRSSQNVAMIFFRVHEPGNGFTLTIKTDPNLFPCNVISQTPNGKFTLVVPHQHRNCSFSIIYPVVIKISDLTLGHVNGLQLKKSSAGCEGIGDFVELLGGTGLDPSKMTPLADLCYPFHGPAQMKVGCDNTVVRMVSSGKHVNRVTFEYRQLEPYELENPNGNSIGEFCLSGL

[6] = target: T4, Corticotropin-releasing factor receptor 2/Corticotropin-releasing factor-binding protein; assay: activators of CRF receptor 2 with binding protein – uHTS hits, confirmation (AID 602473); assay type: functional; conditions: read-out: EC50_Mean
[7] = blockers of CRF-binding protein–CRF-R2 complex – cell-based, uHTS hits, 384-well, dose response (AID 651639); assay type: functional, Homo sapiens; conditions: read-out: IC50_Mean
Cytochrome P450 1A2 = target: T5, Cytochrome P450 1A2 (Homo sapiens, UniProt P05177);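 further: PubChem cytochrome P450 panel assay, CYP1A2 panel member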
T5 sequence (P05177 whole entry): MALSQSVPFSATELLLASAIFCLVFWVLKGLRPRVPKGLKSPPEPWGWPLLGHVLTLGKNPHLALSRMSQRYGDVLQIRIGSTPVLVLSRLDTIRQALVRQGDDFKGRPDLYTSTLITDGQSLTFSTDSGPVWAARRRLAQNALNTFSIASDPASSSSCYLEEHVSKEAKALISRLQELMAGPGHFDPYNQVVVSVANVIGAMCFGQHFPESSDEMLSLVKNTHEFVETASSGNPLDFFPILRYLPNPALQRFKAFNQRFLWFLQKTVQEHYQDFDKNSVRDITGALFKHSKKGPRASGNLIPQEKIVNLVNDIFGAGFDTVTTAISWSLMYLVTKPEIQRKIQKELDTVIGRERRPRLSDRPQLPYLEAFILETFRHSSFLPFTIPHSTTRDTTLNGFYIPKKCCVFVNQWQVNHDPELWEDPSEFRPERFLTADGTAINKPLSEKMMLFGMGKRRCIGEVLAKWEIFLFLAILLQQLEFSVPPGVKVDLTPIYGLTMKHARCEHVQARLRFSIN

Cytochrome P450 3A4 [8] = target: T6, Cytochrome P450 3A4 (Homo sapiens, UniProt P08684)
Cytochrome P450 2C9 = Cytochrome P450 2C9 (Homo sapiens, UniProt P11712)
Nonstructural protein 1 = Nonstructural protein 1 (Influenza A virus, UniProt Q194T2); assay type: functional, Influenza A virus (A/California/07/2009(H1N1))
[9] = target: T7, Rac GTPase-activating protein 1 (Homo sapiens, UniProt Q9H0H5); assay: blockers of MgcRacGAP-driven Rac1 GTP hydrolysis – biochemical, ADP Hunter fluorescence, primary and confirmatory, confirmation (AID 624330); assay type: functional
T7 sequence (Q9H0H5 whole entry): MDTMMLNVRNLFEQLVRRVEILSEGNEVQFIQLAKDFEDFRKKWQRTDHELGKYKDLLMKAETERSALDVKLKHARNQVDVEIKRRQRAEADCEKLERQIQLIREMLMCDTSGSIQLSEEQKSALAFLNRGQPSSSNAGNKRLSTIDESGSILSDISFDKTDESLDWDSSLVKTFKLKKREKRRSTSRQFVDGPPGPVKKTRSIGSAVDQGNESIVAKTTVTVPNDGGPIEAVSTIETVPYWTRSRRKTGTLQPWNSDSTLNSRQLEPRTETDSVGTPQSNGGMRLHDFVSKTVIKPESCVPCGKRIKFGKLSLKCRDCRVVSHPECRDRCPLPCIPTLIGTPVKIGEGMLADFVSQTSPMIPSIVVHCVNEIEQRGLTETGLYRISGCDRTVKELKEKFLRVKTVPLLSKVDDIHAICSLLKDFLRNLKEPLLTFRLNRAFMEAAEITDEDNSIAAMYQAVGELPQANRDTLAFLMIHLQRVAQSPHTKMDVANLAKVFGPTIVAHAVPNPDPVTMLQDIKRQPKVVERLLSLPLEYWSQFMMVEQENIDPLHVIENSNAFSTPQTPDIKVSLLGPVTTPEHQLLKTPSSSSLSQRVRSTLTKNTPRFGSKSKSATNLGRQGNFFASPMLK

Cytochrome P450 3A4 [10] = target: T6, Cytochrome P450 3A4; conditions: Potency
[11] = target: Voltage-gated inwardly rectifying potassium channel KCNH2 (Homo sapiens, UniProt Q12809); conditions: Potency;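 further: confirmatory quantitative high-throughput screen measuring inhibition of hERG channel activity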
[12] = target: T8, Carboxy-terminal domain RNA polymerase II polypeptide A small phosphatase 1 (Homo sapiens, UniProt Q9GZU7); assay: CTDSP1 inhibitors, concentration-response, biochemical, absorbance readout, ultra-high-throughput screen actives (AID 540297); assay type: functional
T8 sequence (Q9GZU7 whole entry): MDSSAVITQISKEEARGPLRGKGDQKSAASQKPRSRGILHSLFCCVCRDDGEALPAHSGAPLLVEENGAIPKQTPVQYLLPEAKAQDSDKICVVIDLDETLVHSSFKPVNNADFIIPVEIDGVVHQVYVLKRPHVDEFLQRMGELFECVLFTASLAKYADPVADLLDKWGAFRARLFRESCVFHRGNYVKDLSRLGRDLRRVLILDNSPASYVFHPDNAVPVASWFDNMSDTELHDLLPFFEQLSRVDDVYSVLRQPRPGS

[13] = target: 26S proteasome non-ATPase regulatory subunit 14 (Homo sapiens, UniProt O00487); assay: inhibition of proteasome subunit RPN11 – biochemical, fluorescence polarization, uHTS hits, confirmation (AID 602368); assay type: functional
[14] = target: 72 kDa type IV collagenase (Homo sapiens, UniProt P08253); assay: Dose Response validation of uHTS RPN11 inhibitor hits using a MMP-2 Fluorescence assay.; assay type: functional
Prothrombin = Prothrombin (Bos taurus, UniProt P00735); assay: thrombin protease inhibitors – biochemical, fluorescence polarization, uHTS hits, dose response (AID 602369); assay type: functional
[15] = target: T9, Low molecular weight phosphotyrosine protein phosphatase (Homo sapiens, UniProt P24666); assay type: functional; conditions: read-out: IC50_Mean
T9 sequence (P24666 whole entry): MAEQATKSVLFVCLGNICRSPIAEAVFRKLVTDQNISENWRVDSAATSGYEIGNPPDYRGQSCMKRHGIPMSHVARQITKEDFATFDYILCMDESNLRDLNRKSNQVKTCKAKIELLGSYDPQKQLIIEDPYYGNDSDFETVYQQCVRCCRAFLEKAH

[16] = target: T9, Low molecular weight phosphotyrosine protein phosphatase; assay type: functional; conditions: read-out: IC50_Mean; remark: listed apart in the source

T6 sequence (P08684 whole entry): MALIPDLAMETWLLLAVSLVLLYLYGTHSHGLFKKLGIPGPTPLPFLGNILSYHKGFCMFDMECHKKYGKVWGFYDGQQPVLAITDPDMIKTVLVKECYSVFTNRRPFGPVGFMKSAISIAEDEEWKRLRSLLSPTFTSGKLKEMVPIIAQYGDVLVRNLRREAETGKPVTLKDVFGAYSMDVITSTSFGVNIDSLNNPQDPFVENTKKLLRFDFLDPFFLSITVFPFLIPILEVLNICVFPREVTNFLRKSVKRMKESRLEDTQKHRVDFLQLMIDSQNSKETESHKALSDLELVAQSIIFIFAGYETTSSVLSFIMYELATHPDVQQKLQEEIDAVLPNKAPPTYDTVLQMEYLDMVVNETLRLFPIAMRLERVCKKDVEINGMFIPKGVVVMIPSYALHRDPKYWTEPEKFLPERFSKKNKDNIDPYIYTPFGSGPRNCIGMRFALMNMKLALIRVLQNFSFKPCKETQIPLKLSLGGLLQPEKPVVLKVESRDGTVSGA
Chain of Voltage-gated inwardly rectifying potassium channel KCNH2 (Q12809 whole entry, the tested form may be a part): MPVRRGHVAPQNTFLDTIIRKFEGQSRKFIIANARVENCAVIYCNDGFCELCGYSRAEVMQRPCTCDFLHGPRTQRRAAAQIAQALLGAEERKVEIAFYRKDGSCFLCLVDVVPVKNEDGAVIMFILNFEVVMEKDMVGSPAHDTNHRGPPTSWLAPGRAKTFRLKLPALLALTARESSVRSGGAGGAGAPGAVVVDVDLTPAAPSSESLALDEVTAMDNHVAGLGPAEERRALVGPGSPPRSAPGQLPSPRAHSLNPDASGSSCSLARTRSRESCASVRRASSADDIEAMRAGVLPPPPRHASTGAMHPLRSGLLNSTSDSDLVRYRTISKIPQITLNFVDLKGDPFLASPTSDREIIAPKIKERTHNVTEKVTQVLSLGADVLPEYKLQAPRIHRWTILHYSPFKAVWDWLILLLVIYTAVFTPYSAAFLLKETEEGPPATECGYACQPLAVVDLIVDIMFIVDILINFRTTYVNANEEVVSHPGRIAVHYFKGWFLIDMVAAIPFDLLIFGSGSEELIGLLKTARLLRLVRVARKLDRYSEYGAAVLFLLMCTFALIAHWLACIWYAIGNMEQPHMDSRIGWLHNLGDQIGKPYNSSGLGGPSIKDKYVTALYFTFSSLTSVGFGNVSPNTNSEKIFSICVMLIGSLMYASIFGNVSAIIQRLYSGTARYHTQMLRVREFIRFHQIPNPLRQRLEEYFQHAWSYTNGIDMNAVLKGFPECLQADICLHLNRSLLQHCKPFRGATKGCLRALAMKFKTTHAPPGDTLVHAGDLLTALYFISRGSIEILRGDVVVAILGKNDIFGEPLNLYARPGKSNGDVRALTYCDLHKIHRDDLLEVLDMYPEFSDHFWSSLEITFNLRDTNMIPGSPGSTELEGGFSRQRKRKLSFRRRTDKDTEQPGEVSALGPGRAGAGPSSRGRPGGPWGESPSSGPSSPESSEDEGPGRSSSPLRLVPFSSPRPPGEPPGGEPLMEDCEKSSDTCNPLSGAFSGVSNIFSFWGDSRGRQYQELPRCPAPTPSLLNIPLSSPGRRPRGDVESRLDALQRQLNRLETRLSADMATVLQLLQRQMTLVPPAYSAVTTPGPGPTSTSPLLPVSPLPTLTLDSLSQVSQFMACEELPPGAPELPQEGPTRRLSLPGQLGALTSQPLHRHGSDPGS
Chain of 26S proteasome non-ATPase regulatory subunit 14 (O00487 whole entry): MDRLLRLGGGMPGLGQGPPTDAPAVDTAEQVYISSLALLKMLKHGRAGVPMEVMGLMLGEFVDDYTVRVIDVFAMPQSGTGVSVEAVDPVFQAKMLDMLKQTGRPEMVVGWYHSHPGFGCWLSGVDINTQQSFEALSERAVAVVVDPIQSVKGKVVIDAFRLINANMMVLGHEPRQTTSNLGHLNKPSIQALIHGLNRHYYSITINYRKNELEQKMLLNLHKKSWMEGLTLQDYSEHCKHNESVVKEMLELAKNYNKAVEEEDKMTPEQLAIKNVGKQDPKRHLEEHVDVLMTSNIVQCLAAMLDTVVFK
Chain of 72 kDa type IV collagenase (P08253 whole entry): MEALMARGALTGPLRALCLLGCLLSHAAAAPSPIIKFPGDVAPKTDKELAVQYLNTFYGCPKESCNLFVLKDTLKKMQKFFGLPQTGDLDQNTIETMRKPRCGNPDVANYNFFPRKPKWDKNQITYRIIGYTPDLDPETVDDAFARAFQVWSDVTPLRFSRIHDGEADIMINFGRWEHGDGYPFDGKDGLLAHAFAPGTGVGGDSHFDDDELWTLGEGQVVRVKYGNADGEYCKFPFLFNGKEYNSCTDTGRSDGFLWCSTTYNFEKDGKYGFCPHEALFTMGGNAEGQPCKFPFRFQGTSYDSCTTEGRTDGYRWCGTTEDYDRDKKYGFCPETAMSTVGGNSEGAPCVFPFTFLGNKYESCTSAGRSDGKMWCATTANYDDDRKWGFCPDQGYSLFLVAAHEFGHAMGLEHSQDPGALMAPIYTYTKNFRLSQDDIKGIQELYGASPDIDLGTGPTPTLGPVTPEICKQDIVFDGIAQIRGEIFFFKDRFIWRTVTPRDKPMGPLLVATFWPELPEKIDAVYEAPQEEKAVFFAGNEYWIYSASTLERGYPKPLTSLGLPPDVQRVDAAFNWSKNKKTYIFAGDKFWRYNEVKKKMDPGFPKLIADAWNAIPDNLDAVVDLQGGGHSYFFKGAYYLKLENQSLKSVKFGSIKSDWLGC
Chain of Nonstructural protein 1 (Q194T2 whole entry): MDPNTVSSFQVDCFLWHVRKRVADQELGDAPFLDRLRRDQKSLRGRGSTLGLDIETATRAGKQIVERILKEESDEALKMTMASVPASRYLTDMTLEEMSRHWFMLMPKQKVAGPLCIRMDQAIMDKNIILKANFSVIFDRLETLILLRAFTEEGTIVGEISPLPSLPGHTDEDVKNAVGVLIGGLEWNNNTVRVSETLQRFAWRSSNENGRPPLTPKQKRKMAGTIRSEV
Chain of Cytochrome P450 2C9 (P11712 whole entry): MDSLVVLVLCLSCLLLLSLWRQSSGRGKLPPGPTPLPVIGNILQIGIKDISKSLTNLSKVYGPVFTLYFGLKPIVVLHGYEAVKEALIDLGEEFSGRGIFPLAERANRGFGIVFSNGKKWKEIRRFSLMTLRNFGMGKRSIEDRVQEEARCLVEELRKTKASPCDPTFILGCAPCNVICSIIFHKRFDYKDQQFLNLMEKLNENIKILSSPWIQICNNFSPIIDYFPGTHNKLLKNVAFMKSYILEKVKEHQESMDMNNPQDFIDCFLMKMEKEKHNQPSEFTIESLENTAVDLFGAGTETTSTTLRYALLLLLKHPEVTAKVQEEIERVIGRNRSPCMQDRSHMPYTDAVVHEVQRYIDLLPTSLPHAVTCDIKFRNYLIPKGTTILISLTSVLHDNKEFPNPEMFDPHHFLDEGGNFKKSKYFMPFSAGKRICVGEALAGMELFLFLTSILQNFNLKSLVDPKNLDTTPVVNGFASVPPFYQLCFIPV

SMILES: Cn1nc(C(F)(F)F)cc1-c1ccc(/C=C(\C#N)C(=O)c2ccccc2)s1
- EC50 [1]: 21.1 µM (inconclusive)
- EC50 [2]: 11.2 µM (inconclusive)
- EC50 [3]: > 99 µM (inactive)
- EC50 [4]: > 99 µM (inactive)

SMILES: CCOc1cc(C)ccc1OCc1nnc(SCC(=O)c2cccc([N+](=O)[O-])c2)n1C
- IC50 [5]: 2.52 µM (active)
- EC50 [6]: > 53 µM (inactive)
- IC50 [7]: 2.11 µM (active)
- AC50 (Cytochrome P450 1A2): 15.8 µM (inconclusive)
- AC50 (Cytochrome P450 3A4 [8]): 1.41 µM (inconclusive)
- AC50 (Cytochrome P450 2C9): inconclusive

SMILES: CN(C)c1ccc(Cc2ccc(N(C)C)cc2)cc1
- IC50 (Nonstructural protein 1): 36.6 µM (active)
- IC50 [9]: 73.2 µM (active)
- AC50 (Cytochrome P450 3A4 [10]): 12.6 µM (inconclusive)
- AC50 [11]: 70.8 µM (inconclusive)

SMILES: O=c1c(Cl)c(N/N=C/c2ccc(Br)cc2)cnn1-c1ccccc1
- IC50 [12]: > 80 µM (inactive)
- IC50 [13]: 21.2 µM (active)
- IC50 [14]: > 100 µM (inactive)
- IC50 (Prothrombin): > 100 µM (inactive)
- IC50 [15]: > 80 µM (inactive)
- IC50 [16]: 21.6 µM (inactive)
